Reference: patent US6348445B1, “Biologically active peptides with reduced toxicity in animals and a method for preparing same” (priority 1992, dated 2002)
Where a SMILES comes first, the peptide text is derived from it. The star is where a group is joined. Ibuprofenoyl = CC(C)Cc1ccc(C(C)C(=O)*)cc1; Myristoyl = CCCCCCCCCCCCCC(=O)*; Heptanoyl = CCCCCCC(=O)*; Octanoyl = CCCCCCCC(=O)*

Legend:
Assay type in all cases: cell-based
[1] = test system: P. aeruginosa strain ATCC 27853; details: ATCC 27853
From the text: (§1) Table I, which follows, indicates the Minimal Inhibitory Concentration (MIC) in […] of various peptides against S.aureus strain ATCC 25923(S), P. aeruginosa strain ATCC 27853(P), E. coli ATCC strain 25922(E), and C. 4albicans (CA). […] The peptides are unsubstituted at the N-terminal; substituted with an acetyl group at the N-terminal, as indicated by Ac-; substituted with an octanoyl group at the N-terminal, as indicated by Oct-; substituted with spinogosine, as indicated by Sph-; substituted with a succinyl group, as indicated by Suc-; substituted with a hexanoyl group, as indicated by Hex-; substituted with a heptanoyl group, as indicated by Hep-; substituted with a valeryl group, as indicated by Val-; substituted with a myristryl group, as indicated by Myr-; or substituted with an ibuprofyl group, as indicated by Ibu-;
(§2) The procedure for the anti-bacterial assay is based upon the guidelines of the National Committee for Clinical Laboratory Standards, Document M7-T2, Volume 8, No. 8, 1988, which document is entirely incorporated herein by reference.
(§3) Stock solutions of peptides, with and without the appropriate substitutions, were prepared at a concentration of 512 μg/ml in sterile deionized distilled water and stored at −70° C.
(§4) The stock peptide solution was diluted in serial dilutions (1:2) down the wells of a microtiter plate so that the final concentrations of peptides in the wells were 0.25, 0.50, 1, 2, 4, 8, 16, 32, 64, 128 and 256 μg/ml. 1-5×10^5 CFUs/ml of either S. aureus ATCC 25923, E. coli ATCC 25922, P. aeruginosa ATCC 27853, or C. albicans, were added to the wells in full strength Mueller Hinton broth (BBL 11443) from a mid-log culture. The inoculum was standardized spectrophotometrically at 600 nm and was verified by colony counts. The plates were incubated for 16-20 hours at 37° C., and the minimal inhibitory concentration (MIC) for each peptide was determined. Minimal inhibitory concentration is defined as the lowest concentration of peptide which produces a clear well in the microtiter plate. The minimal inhibitory concentration of each of the peptides with and/or without the appropriate substitutions is given in Table I below.
(§5) The in vitro anti-microbial activities of the methane sulfonate derivatives were determined according to the methods described in Examples 1 and 2. The activities against ATCC strains of S. aureus, E. coli, P. aeruginosa, and C. albicans, and the hemolysis of red blood cells were compared to the parent compound (Table IV). The activities for Compound 843 (Oct-SEQ ID NO:143) methane sulfonate against clinical strains of P. aeruginosa isolated from cystic fibrosis patients were compared to the parent compound (Table V). The activity for Compound 469 (Oct-SEQ ID NO:27) methane sulfonate against P. gingivalis was compared to the parent compound (Table VI).

[2] = test system: E. coli ATCC strain 25922; experiment: Minimal Inhibitory Concentration, microtiter broth dilution; details: ATCC strain 25922
From the text: as §1, §2, §3, §4, §5

[3] = test system: C. albicans
From the text: as §1, §2, §3, §4

Structure (SMILES) | Minimal Inhibitory Concentration P [1] [µg/mL] | Minimal Inhibitory Concentration E [2] [µg/mL] | Minimal Inhibitory Concentration CA [3] [µg/mL]
CCCCCCCC(=O)N[C@@H](CC(C)C)C(=O)N[C@@H](CC(C)C)C(=O)N[C@@H](CCCCN)C(=O)N[C@@H](CCCCN)C(=O)N[C@@H](CC(C)C)C(=O)N[C@@H](CCCCN)C(=O)N[C@@H](CCCCN)C(=O)N[C@@H](CC(C)C)C(=O)N[C@@H](CC(C)C)C(=O)N[C@@H](CCCCN)C(=O)N[C@@H](CCCCN)C(=O)N[C@@H](CC(C)C)C(N)=O [Oct-(SEQ ID NO: 113)-NH2] (Octanoyl-LLKKLKKLLKKL-NH2) | 8 | 8 | 128
CCCCCCCC(=O)N[C@@H](CCCCN)C(=O)N[C@@H](Cc1ccccc1)C(=O)N[C@@H](C)C(=O)N[C@@H](CCCCN)C(=O)N[C@@H](CCCCN)C(=O)N[C@@H](Cc1ccccc1)C(=O)N[C@@H](C)C(N)=O [Oct-(SEQ ID NO: 118)-NH2] (Octanoyl-KFAKKFA-NH2) | >256 | >256 | >256
CCCCCCCC(=O)N[C@@H](CCCNC(=N)N)C(=O)N[C@@H](Cc1ccccc1)C(=O)N[C@@H](C)C(=O)N[C@@H](CCCNC(=N)N)C(=O)N[C@@H](CCCNC(=N)N)C(=O)N[C@@H](Cc1ccccc1)C(=O)N[C@@H](C)C(N)=O [Oct-(SEQ ID NO: 120)-NH2] (Octanoyl-RFARRFA-NH2) | 128 | 256 | 64
CCCCCCCC(=O)N[C@@H](CC(C)C)C(=O)N[C@@H](CCCCN)C(=O)N[C@@H](CCCCN)C(=O)N[C@@H](CC(C)C)C(=O)N[C@@H](CC(C)C)C(=O)N[C@@H](CCCCN)C(=O)N[C@@H](CCCCN)C(=O)N[C@@H](CC(C)C)C(=O)N[C@@H](CCCCN)C(=O)N[C@@H](CCCCN)C(=O)N[C@@H](CC(C)C)C(=O)N[C@@H](CS)C(N)=O [Oct-(SEQ ID NO: 133)-NH2] (Octanoyl-LKKLLKKLKKLC-NH2) | 32 | 32 | 128
CC[C@H](C)[C@H](NC(=O)[C@H](CCCCN)NC(=O)CNC(=O)[C@H](C)NC(=O)[C@@H](NC(=O)[C@H](CCCCN)NC(=O)[C@H](C)NC(=O)[C@@H](NC(=O)[C@H](CCCCN)NC(=O)CNC(=O)[C@H](C)NC(=O)[C@@H](NC(=O)[C@H](CCCCN)NC(=O)[C@H](C)NC(=O)[C@@H](NC(=O)[C@H](CCCCN)NC(=O)CNC(=O)[C@H](C)NC(=O)[C@@H](NC(=O)[C@H](CCCCN)NC(=O)C(C)c1ccc(CC(C)C)cc1)[C@@H](C)CC)[C@@H](C)CC)[C@@H](C)CC)[C@@H](C)CC)[C@@H](C)CC)C(=O)N[C@@H](C)C(N)=O (stereo partly drawn) [Ibu-(SEQ ID NO: 27)-NH2] (Ibuprofenoyl-KIAGKIAKIAGKIAKIAGKIA-NH2) | 4 | 8 | 128
CCCCCCCCCCCCCC(=O)N[C@@H](CC(C)C)C(=O)N[C@@H](CCCCN)C(=O)N[C@@H](CCCCN)C(=O)N[C@@H](CC(C)C)C(=O)N[C@@H](CC(C)C)C(=O)N[C@@H](CCCCN)C(=O)N[C@@H](CCCCN)C(=O)N[C@@H](CC(C)C)C(=O)N[C@@H](CCCCN)C(=O)N[C@@H](CCCCN)C(=O)N[C@@H](CC(C)C)C(N)=O [Myr-(SEQ ID NO: 110)-NH2] (Myristoyl-LKKLLKKLKKL-NH2) | 16 | 16 | >256
CCCCCCCC(=O)N[C@@H](CCCCN)C(=O)N[C@@H](CCCCN)C(=O)N[C@@H](Cc1ccccc1)C(=O)N[C@@H](C)C(=O)N[C@@H](CCCCN)C(=O)N[C@@H](Cc1ccccc1)C(=O)N[C@@H](C)C(=O)N[C@@H](CCCCN)C(=O)N[C@@H](CCCCN)C(=O)N[C@@H](Cc1ccccc1)C(=O)N[C@@H](C)C(N)=O [Oct-(SEQ ID NO: 122)-NH2] (Octanoyl-KKFAKFAKKFA-NH2) | 32 | 64 | 64
CCCCCCCC(=O)N[C@@H](CCCCN)C(=O)N[C@H](C(=O)N[C@@H](C)C(=O)N[C@@H](CCCCN)C(=O)N[C@@H](CCCCN)C(=O)N[C@H](C(=O)N[C@@H](C)C(N)=O)[C@@H](C)CC)[C@@H](C)CC [Oct-(SEQ ID NO: 119)-NH2] (Octanoyl-KIAKKIA-NH2) | >256 | >256 | >256
CCCCCCCC(=O)N[C@@H](C)C(=O)N[C@@H](CCCCN)C(=O)N[C@@H](CCCCN)C(=O)N[C@@H](CC(C)C)C(=O)N[C@@H](CC(C)C)C(=O)N[C@@H](CCCCN)C(=O)N[C@@H](CCCCN)C(=O)N[C@@H](CC(C)C)C(=O)N[C@@H](CCCCN)C(=O)N[C@@H](CCCCN)C(=O)N[C@@H](CC(C)C)C(N)=O [Oct-(SEQ ID NO: 111)-NH2] (Octanoyl-AKKLLKKLKKL-NH2) | 8 | 32 | 32
CCCCCCC(=O)N[C@@H](CC(C)C)C(=O)N[C@@H](CCCCN)C(=O)N[C@@H](CCCCN)C(=O)N[C@@H](CC(C)C)C(=O)N[C@@H](CC(C)C)C(=O)N[C@@H](CCCCN)C(=O)N[C@@H](CCCCN)C(=O)N[C@@H](CC(C)C)C(=O)N[C@@H](CCCCN)C(=O)N[C@@H](CCCCN)C(=O)N[C@@H](CC(C)C)C(N)=O [Hep-(SEQ ID NO: 110)-NH2] (Heptanoyl-LKKLLKKLKKL-NH2) | 4 | 16 | 32
CCCCCCCC(=O)N[C@@H](CCCCN)C(=O)N[C@@H](CCCCN)C(=O)N[C@@H](CCCCN)C(=O)N[C@@H](CC(C)C)C(=O)N[C@@H](CC(C)C)C(=O)N[C@@H](CCCCN)C(=O)N[C@@H](CCCCN)C(=O)N[C@@H](CC(C)C)C(=O)N[C@@H](CCCCN)C(=O)N[C@@H](CCCCN)C(=O)N[C@@H](CC(C)C)C(N)=O [Oct-(SEQ ID NO: 128)-NH2] (Octanoyl-KKKLLKKLKKL-NH2) | 64 | 32 | 32
CCCCCCCC(=O)N[C@@H](CCCNC(=N)N)C(=O)N[C@@H](Cc1ccccc1)C(=O)N[C@@H](C)C(=O)N[C@@H](CCCNC(=N)N)C(=O)N[C@@H](CCCNC(=N)N)C(=O)N[C@@H](Cc1ccccc1)C(=O)N[C@@H](C)C(=O)N[C@@H](CCCNC(=N)N)C(=O)N[C@@H](Cc1ccccc1)C(=O)N[C@@H](C)C(=O)N[C@@H](CCCNC(=N)N)C(=O)N[C@@H](CCCNC(=N)N)C(=O)N[C@@H](Cc1ccccc1)C(=O)N[C@@H](C)C(N)=O [Oct-(SEQ ID NO: 126)-NH2] (Octanoyl-RFARRFARFARRFA-NH2) | 8 | 8 | 64
CCCCCCCC(=O)N[C@@H](CCCCN)C(=O)N[C@@H](CCCCN)C(=O)N[C@@H](CC(C)C)C(=O)N[C@@H](CC(C)C)C(=O)N[C@@H](CCCCN)C(=O)N[C@@H](CCCCN)C(=O)N[C@@H](CC(C)C)C(=O)N[C@@H](CCCCN)C(=O)N[C@@H](CCCCN)C(=O)N[C@@H](CC(C)C)C(=O)N[C@@H](CC(C)C)C(=O)N[C@@H](CCCCN)C(=O)N[C@@H](CCCCN)C(=O)N[C@@H](CC(C)C)C(N)=O [Oct-(SEQ ID NO: 139)-NH2] (Octanoyl-KKLLKKLKKLLKKL-NH2) | 32 | 16 | 128
CCCCCCCC(=O)N[C@@H](CCCCN)C(=O)N[C@@H](Cc1ccccc1)C(=O)N[C@@H](C)C(=O)N[C@@H](CCCCN)C(=O)N[C@@H](CCCCN)C(=O)N[C@@H](Cc1ccccc1)C(=O)N[C@@H](C)C(=O)N[C@@H](CCCCN)C(=O)N[C@@H](Cc1ccccc1)C(=O)N[C@@H](C)C(=O)N[C@@H](CCCCN)C(=O)N[C@@H](CCCCN)C(=O)N[C@@H](Cc1ccccc1)C(=O)N[C@@H](C)C(N)=O [Oct-(SEQ ID NO: 125)-NH2] (Octanoyl-KFAKKFAKFAKKFA-NH2) | 8 | 16 | 64
